From patent publication US20170223995A1, “Sweetener Blend Compositions” (The Coca-Cola Company, priority 2011, published 2017)

Assay: Multi-sip and swallow taste test by a trained taste tester
Format: in vivo
Procedure: Multi-Sip and Swallow Test Method
A sip (approximately 2.0-5.0 mL) of a sample was swallowed by a trained taste tester. After allowing a 15-25 second interval to pass, a second sip of the sample is tasted and swallowed. This process is repeated as needed to determine the taste properties. The taste properties are then recorded by the trained taste tester. Preferably no more than ten samples are tested per day to avoid taste fatigue. Each sample was taken at least 1.5 hours following eating or drinking.

[1] = 500 ppm in carbon-treated water
[2] = as restated in the Discussion, out of highest five
[3] = 100,000 ppm in carbon-treated water

Compound	bitterness intensity [1]	sugar-like tasting quality [1]	sweetness intensity [1]	sweetness linger [1]	sweetness linger [2]	sweetness (in words, compared with rebaudioside A) (Discussion)	sugar-like tasting quality (in words, comparison) (text remarks, comparison with rebaudioside A)	sweetness onset [1]	bitterness intensity [3]	sugar-like tasting quality [3]	sweetness intensity [3]	sweetness linger [3]
C=C1C[C@@]23CC[C@H]4[C@@](C)(CCC[C@@]4(C)C(=O)O[C@@H]4O[C@H](CO)[C@@H](O)[C@H](O)[C@H]4O)[C@@H]2CC[C@]1(O[C@@H]1O[C@H](CO)[C@@H](O)[C@H](O[C@@H]2O[C@H](CO)[C@@H](O)[C@H](O)[C@H]2O)[C@H]1O[C@@H]1O[C@H](CO)[C@@H](O)[C@H](O)[C@H]1O)C3 [rebaudioside A]	4 out of 5	0 out of 5	5 out of 10	5 out of 5	5	–	–	–	–	–	–	–
C=C1C[C@@]23CC[C@H]4[C@@](C)(CCC[C@@]4(C)C(=O)O[C@@H]4O[C@H](CO)[C@@H](O)[C@H](O)[C@H]4O[C@@H]4O[C@H](CO)[C@@H](O)[C@H](O)[C@H]4O)[C@@H]2CC[C@]1(O[C@@H]1O[C@H](CO)[C@@H](O)[C@H](O[C@@H]2O[C@H](CO)[C@@H](O)[C@H](O)[C@H]2O)[C@H]1O[C@@H]1O[C@H](CO)[C@@H](O)[C@H](O)[C@H]1O)C3 [rebaudioside D]	–	–	–	–	5	less sweetness	slightly more sugar-like taste quality	–	–	–	–	–
C=C1C[C@@]23CC[C@H]4[C@@](C)(CCC[C@@]4(C)C(=O)O)[C@@H]2CC[C@]1(O[C@@H]1O[C@H](CO)[C@@H](O)[C@H](O)[C@H]1O[C@@H]1O[C@H](CO)[C@@H](O)[C@H](O)[C@H]1O)C3 [steviolbioside]	no bitterness	2 out of 5	5 out of 10	3 out of 5	–	–	–	slow sweetness onset	–	–	–	–
C=C1C[C@@]23CC[C@H]4[C@@](C)(CCC[C@@]4(C)C(=O)O[C@@H]4O[C@H](CO)[C@@H](O)[C@H](O)[C@H]4O)[C@@H]2CC[C@]1(O[C@@H]1O[C@H](CO)[C@@H](O)[C@H](O)[C@H]1O[C@@H]1O[C@H](CO)[C@@H](O)[C@H](O)[C@H]1O)C3 [stevioside]	5 out of 5	0 out of 5	5 out of 10	5 out of 5	–	–	–	–	–	–	–	–
OC[C@H]1O[C@@](CO)(O[C@H]2O[C@H](CO)[C@@H](O)[C@H](O)[C@H]2O)[C@@H](O)[C@@H]1O [sugar]	–	–	–	–	–	–	–	–	0	5	10	0
rebaudioside B	0 out of 5	3 out of 5	2 out of 10	3 out of 5	3	–	–	–	–	–	–	–
